In PMC8767159, “Multiparameter Optimization of Trypanocidal Cruzain Inhibitors With In Vivo Activity and Favorable Pharmacokinetics” (Frontiers in Pharmacology, 2022):
Where two headings read alike, the source gives them in different places. Blank lines part the entries; values can stand above or below the compound they belong to.

Assays:
[1] = In vitro metabolic stability in mouse liver microsomes; type: in vitro ADME; conditions: mouse, liver microsomes
Description: Isolated mouse (BD Gentest, Bedford, MA) and human liver microsomes (XenoTech, Kansas City, KS) ([Plant, 2004]) were added at a final concentration of 0.25 mg/ml to a solution containing 40 mM dibasic potassium phosphate and 10 mM monobasic potassium phosphate. Stock solutions of compounds at 5 mM were prepared in 100% DMSO. A 50:50 quenching solution of acetonitrile (ACN) and methanol (MeOH) was prepared. An NADPH solution was prepared at 10 mM. The preparations containing the microsomes were added to each well of the incubation plate (450 µl), which was then heated to 37°C for 10 min. The compounds were added to the respective wells of the test plate (2 µl). Then, 300 µl of the microsome preparation was added to each well of the test plate. The test plate was heated under gentle rotation for 5 min at 37°C. Next, 90 µl of the mixture contained in the test plate was added to the incubation plate, making a final volume of 540 µl. Samples were collected at the following incubation times: 0, 5, 10, 15, 20, and 30 min. To the 0 min sample plate, quenching solution (180 µl), NADPH (6 µl), and the incubation plate mixture (54 µl) were added to each well. The sample plate was then sealed, homogenized, and stored at 4°C. Then, 54 µl of the NADPH solution was added to the incubation plate, which was homogenized. Before the collection of each sample at the established times, 45 µl of the quenching solution was added to each well of the corresponding sample plates. After reaching the incubation times, 60 µl of the mixture contained in the incubation plate was added to the corresponding sample plates. The sample plates were then sealed and stored at 4°C. After the collection of the last sample (30 min), all sample plates were centrifuged at 3,800 rpm for 30 min. The supernatant from each well was collected and transferred to clean plates for mass spectrometry. Five to 10 µl of each sample was injected into an AB Sciex Triple Quad 5500 LC-MS/MS instrument.
(§1) For the biotransformation experiments and analysis of metabolites in microsomes, an Ultra-High-Pressure Liquid Chromatography instrument (UHPLC, Thermo Accela, Waltham, MA) ([Spaggiari et al., 2014]) connected to an automatic sample injector and a 1250 series pump was used. The UHPLC system was connected to a Thermo Fisher (Waltham, MA) LTQ Orbitrap mass spectrometer. For all other analyses, an AB Sciex Triple Quad 5500 coupled to a UHPLC equipped with a UV 1290 diode detector (Agilent Technologies, Santa Clara, CA) and a CTC PAL self-collecting system (LEAP Technologies, Carrboro, NC) was used. Q1 MS positive ion mode (300–500 Da) was used to detect the ions of the parent compounds. The UV detector was operated in spectral mode (250–280 nm). A Hypersil Gold C18 (2.1 mm × 100 mm, 1.9 µm, Thermo Fisher) HPLC column was used. The mobile phases were solvent A (0.1% formic acid in water) and solvent B (0.1% formic acid in ACN). The flow was adjusted to 0.55 ml/min, and the injection volume was adjusted to […]. The gradient started with 1% solvent B for 0.4 min, reached 40% (solvent B) in 2.3 min and 95% (solvent B) in 0.67 min, was maintained for 0.5 min, and returned to the initial condition of 1%. This condition was maintained for 1 min before injection of the next sample. The peak area ratio (peak area of the test compounds/peak area of the control compounds) was converted to the percentage of remaining compound, with the 0 min time point ratio set to 100%. T½ and CLint were calculated from the percentage of remaining compound versus the incubation time. From the resulting function, the slope (k) was determined. The equations T1/2 (min) = ln(2)/k and CLint in vitro (μL/min/mg) = k*1000/0.25 were used to determine T½ and CLint.

[2] = Cytotoxicity MTS assay in HFF-1 fibroblasts; type: cell-based; conditions: human HFF-1 fibroblasts
Description: The synthesized compounds were evaluated for their cytotoxicity against HFF-1 cells using the MTS assay (Promega, Madison, WI) ([Barltrop et al., 1991]) as previously described ([Ferreira et al., 2019]). HFF-1 fibroblasts were plated at 2 × 10^3/well in 96-well culture plates in RPMI 1640 without phenol red enriched with 10% FCS and incubated overnight at 37°C and 5% CO2. Next, 7 concentrations (0.1–100 µM) of the compounds were added in 3-fold serial dilutions, each concentration in triplicate, and the plates were incubated for 72 h at 37°C and 5% CO2. Next, 20 µl of MTS was added to each well, and the plates were incubated for an additional 4 h at 37°C and 5% CO2. The absorbance was measured at 490 nm using a spectrophotometer, and the data were transferred to SigmaPlot 10.0 (Systat Software Inc., Erkrath, Germany) to determine the IC50 values. Doxorubicin (Sigma–Aldrich) was used as a positive control, and untreated wells (100% growth) were used as negative controls in all plates. All compounds were tested in two independent assays.

[3] = In vivo pharmacokinetics in male CD1 mice; design: species or system mouse; conditions: Table 6; for CLpu: plasma clearance corrected for the fraction unbound, IV; for C0 / AUC / half-life / Vd / clearance: IV 0.5 mg/kg; for AUC: read-out: AUC (ng*h/ml) IV; for half-life: read-out: T1/2 (h) IV (converted); for Vd: read-out: V SS (L/kg) IV; for clearance: plasma clearance, read-out: CLp (L/h/kg) IV (converted)
Description: The in vivo pharmacokinetic profiles of the compounds were determined using male CD1 mice weighing […] ([Davies and Morris, 1993]; [Liu and Jia, 2007]). The compounds were administered in a single dose orally (0.5 mg/kg) and intravenously (0.5 mg/kg). Stock solutions of the compounds in DMSO were diluted in Tween 80, PEG-400, and D5W (5% dextrose in water) at a ratio of 2:5:20:73 (v/v). The injection volume was 10 ml/kg. The remaining plasma concentration was monitored over time by LC-MS/MS by collecting blood samples (40 μl) at 10, 25, and 50 min and 1, 3, 6, 9, 12, and 24 h after administration of the compound.
as §1

[4] = Table S5, CLint/fu, read-out: CLint_u (L/h/kg) Mouse (converted)
[5] = Table S5, read-out: CLint (L/h/kg) Mouse (converted)
[6] = Table 5, CLint/fu, read-out: CLint_u (L/h/kg) mouse (converted)
[7] = Table 5, read-out: CLint (L/h/kg) mouse (converted)
[8] = mouse, plasma, PO 0.5 mg/kg, male CD1 mice

Compound: O=C(COc1ccccc1)NCCc1nc2ccccc2n1CCOCc1ccccc1 [Compound 21]
CLint scaled at 5 µM [1, 4]: 1790 L/h/kg | CLint scaled at 5 µM [1, 5]: 847 L/h/kg

Compound: Cc1ccccc1OCC(=O)NCCc1nc2ccccc2n1CCOc1ccccc1Br [Compound 22]
CLint scaled at 5 µM [1, 5]: 487 L/h/kg

Compound: O=C(COc1ccccc1)NCCc1nc2ccccc2n1CCCOc1ccccc1 [Compound 24]
IC50 at 72 h [2]: > 30 µM | CLint scaled at 5 µM [1, 4]: 1850 L/h/kg | CLint scaled at 5 µM [1, 5]: 501 L/h/kg

Compound: Cn1c(CCNC(=O)COc2ccccc2)nc2ccccc21 [Compound 25]
CLint scaled at 5 µM [1, 4]: 123 L/h/kg | CLint scaled at 5 µM [1, 5]: 122 L/h/kg

Compound: O=C(COc1ccccc1)NCCc1nc2ccccc2n1Cc1ccccc1 [Compound 26]
IC50 at 72 h [2]: > 100 µM | CLint scaled at 5 µM [1, 4]: 1010 L/h/kg | CLint scaled at 5 µM [1, 5]: 620 L/h/kg

Compound: C=CCCn1c(CCNC(=O)COc2ccccc2)nc2ccccc21 [Compound 27]
IC50 at 72 h [2]: > 100 µM | CLint scaled at 5 µM [1, 4]: 756 L/h/kg | CLint scaled at 5 µM [1, 5]: 650 L/h/kg

Further lines, results first:

CLint scaled at 5 µM [1, 5]: 300 L/h/kg
Compound: O=C(COc1ccccc1Br)NCCc1nc2ccccc2n1CCOc1ccccc1Br [Compound 23]

CLint scaled at 5 µM [1, 4]: 235 L/h/kg | CLint scaled at 5 µM [1, 5]: 235 L/h/kg
Compound: COCCn1c(CCNC(=O)COc2ccccc2)nc2ccccc21 [Compound 29]

CLint scaled at 5 µM [1, 4]: 1130 L/h/kg | CLint scaled at 5 µM [1, 5]: 713 L/h/kg
Compound: O=C(COc1ccccc1)NCCc1nc2ccccc2n1-c1ccccc1 [Compound 30]

CLint scaled at 5 µM [1, 6]: 87.9 L/h/kg | CLint scaled at 5 µM [1, 7]: 74.6 L/h/kg | CLpu [3]: 29.9 L/h/kg | C0 ([3]; mouse, plasma, male CD1 mice): 232 ng/mL | AUC ([3]; mouse, plasma, male CD1 mice): 67 ng·h/mL | half-life ([3]; mouse, plasma, male CD1 mice): 0.2 h | Vd ([3]; mouse, plasma, male CD1 mice): 1.9 L/kg | Cmax [3, 8]: 12.8 ng/mL | Tmax [3, 8]: 18 min | clearance ([3]; mouse, male CD1 mice): 4.6 L/h/kg
Compound: N#Cc1ccccc1OCC(=O)NCCc1nc2ccccc2[nH]1 [Compound 31]

CLint scaled at 5 µM [1, 6]: 935 L/h/kg | CLint scaled at 5 µM [1, 7]: 705 L/h/kg | CLpu [3]: 231.5 L/h/kg | bioavailability ([3]; mouse, plasma, 0.5 mg/kg, oral bioavailability, male CD1 mice): 0% | C0 ([3]; mouse, plasma, male CD1 mice): 144 ng/mL | AUC ([3]; mouse, plasma, male CD1 mice): 55 ng·h/mL | half-life ([3]; mouse, plasma, male CD1 mice): 0.5 h | Vd ([3]; mouse, plasma, male CD1 mice): 7.2 L/kg | clearance ([3]; mouse, male CD1 mice): 9.5 L/h/kg
Compound: O=C(CCc1ccccc1Br)NCCc1nc2ccccc2[nH]1 [Compound 36]
